From patent publication US20230372263A1, “METHODS AND COMPOSITIONS FOR TREATING AMYOTROPHIC LATERAL SCLEROSIS” (Amylyx Pharmaceuticals, Inc., priority 2022, published 2023)

Assays:
[1] = Population pharmacokinetic model and simulations of PB and PAA (healthy subjects and ALS patients); set-up: species or system human; conditions: for Cmax, Mean: from individual Bayesian (post hoc) parameter estimates; for Cmax, 2.5th percentile / Cmax, 97.5th percentile / Cmax, Geometric mean / Cmax, Median: post hoc Bayesian estimates; for V, volume of distribution of PAA: population PK
Description: The order of administration with and without food was randomly assigned. […] Subjects were advised to take the drug before a meal. […] No inter-occasion variability (IOV) was included.

[2] = Phase II AMX3500 (CENTAUR) sparse sampling: steady-state plasma concentrations of TURSO/TUDCA, UDCA, GUDCA in ALS patients; type: in vivo, human; conditions: patients; comparison across studies
How it was run: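 ALS patients dosed with one sachet daily for 3 weeks, then one sachet twice daily if tolerated, for 24 weeks, advised before a meal. Sparse plasma samples were taken 1 or 4 h post-dose at weeks 12 and 24, with sequence randomly assigned. Subgroups covered antibiotic use, eGFR (<90 vs ≥90 mL/min/1.73 m^2) and age (≥65 vs <65).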

SMILES: O=C(O)Cc1ccccc1 [PAA, phenylacetate]
- Cmax, Mean ([1]; ALS patients, Fasting): 24100 ng/mL
- Cmax, 2.5th percentile ([1]; ALS patients, Fasting): 10100 ng/mL
- Cmax, 97.5th percentile ([1]; ALS patients, Fasting): 44200 ng/mL
- Cmax, Geometric mean ([1]; ALS patients, Fasting): 22300 ng/mL
- Cmax, Median ([1]; ALS patients, Fasting): 23800 ng/mL
- Cmax, Mean ([1]; ALS patients, Fed): 16600 ng/mL
- Cmax, 2.5th percentile ([1]; ALS patients, Fed): 8160 ng/mL
- Cmax, 97.5th percentile ([1]; ALS patients, Fed): 25300 ng/mL
- Cmax, Geometric mean ([1]; ALS patients, Fed): 15600 ng/mL
- Cmax, Median ([1]; ALS patients, Fed): 16900 ng/mL
- estimated steady-state mean Cmax ([1]; ALS patients, based on population PK): 24100 ng/mL
- V, volume of distribution of PAA ([1]; Bootstrap Median): 56.1 L
- V, volume of distribution of PAA ([1]; Final Model mean estimate): 56.3 L
- accumulation in plasma after once- or twice-daily dosing [2]: no accumulation
